Results from ChEMBL document CHEMBL5321275, “Discovery, Optimization, and Evaluation of Novel N-(Benzimidazol-5-yl)-1,3,4-thiadiazol-2-amine Analogues as Potent STAT3 Inhibitors for Cancer Treatment” (J Med Chem, 2023).
Converted amounts (≈) assume the structure as drawn.

Columns and labels:
[1] = Metabolic stability in human liver microsomes at 10 uM measured after 120 mins in presence of NADPH-GS by HPLC-MS/MS analysis; format: ADME, Microsome; details: read-out: Stability
DU-145 [2] = assay: Antiproliferative activity against human DU-145 cells assessed as inhibition of cell growth at 10 uM measured after 96 hrs by MTT assay relative to control; format: functional
DU-145 [3] = assay: Antiproliferative activity against human DU-145 cells assessed as inhibition of cell growth measured after 96 hrs by MTT assay; format: functional, cell-based; details: DU-145, 96 h
[4] = Inhibition of IL-6/JAK/STAT3 signalling pathway in HEK-Blue IL-6 cells incubated for 16 hrs by QUANTI-blue assay; format: cell-based; details: Homo sapiens, HEK-Blue IL-6, 16 h
MDA-MB-231 [5] = assay: Antiproliferative activity against human MDA-MB-231 cells assessed as inhibition of cell growth measured after 96 hrs by MTT assay; format: functional, cell-based; details: MDA-MB-231, 96 h
MDA-MB-231 [6] = assay: Antiproliferative activity against human MDA-MB-231 cells assessed as inhibition of cell growth at 10 uM measured after 96 hrs by MTT assay relative to control; format: functional
[7] = Solubility of compound in water incubated for 10 mins; format: physicochemical
HEK-Blue IL-6 = assay: Inhibition of IL-6/JAK/STAT3 signalling pathway in HEK-Blue IL-6 cells at 10 uM incubated for 16 hrs by QUANTI-blue assay relative to control; format: cell-based; details: Homo sapiens
[8] = Metabolic stability in mouse liver microsomes assessed as intrinsic clearance in presence of NADPH/UDPGA; format: ADME, Microsome; details: read-out: CLH
[9] = Metabolic stability in mouse liver microsomes assessed as half life in presence of NADPH/UDPGA; format: ADME, Microsome

remaining at 2 h, 10 µM [1]	IC50 (DU-145 [3])	IC50 [4]	IC50 (MDA-MB-231 [5])	solubility at 10 min [7]	microsomal CLint [8]	half-life [9]	SMILES	inhibition at 10 µM (DU-145 [2])	inhibition at 10 µM (MDA-MB-231 [6])	inhibition (HEK-Blue IL-6)
	> 10 µM	3.37 µM	> 10 µM				Fc1ccc(-c2nc3cc(Nc4nnc(-c5cccc(Cl)c5)s4)c(F)cc3n2C2CC2)cc1	-7.76%	-2.05%	67.8%
	4.04 µM	2.42 µM	3.21 µM				CC(C)N1CCN(c2cc3c(cc2Nc2nnc(-c4ccccc4)s2)nc(-c2ccc(F)cc2)n3C2CC2)CC1	79.9%	90.1%	77.1%
	> 10 µM	0.6 µM	> 10 µM				Fc1ccc(-c2nc3cc(Nc4nnc(-c5ccccc5C(F)(F)F)s4)c(F)cc3n2C2CC2)cc1	14.7%	3.62%	99.9%
	> 10 µM	7.88 µM	> 10 µM				CC(C)c1ccc(-c2nnc(Nc3cc4nc(-c5ccc(F)cc5)n(C5CC5)c4cc3F)s2)cc1	17.9%	1.85%	61.9%
	> 10 µM	0.52 µM	> 10 µM				CCOc1cc2c(cc1Nc1nnc(-c3cccc(C#N)c3)s1)nc(-c1ccc(F)cc1)n2C1CC1	14%	-5.91%	92.5%
	> 10 µM	3.29 µM	> 10 µM				CN(C)C1CCN(c2cc3c(cc2Nc2nnc(-c4ccccc4)s2)nc(-c2ccc(F)cc2)n3C2CC2)CC1	-2.92%	19.5%	69.2%
	> 10 µM	4.84 µM	> 10 µM				Fc1ccc(-c2nc3cc(Nc4nnc(-c5ccc(C(F)(F)F)cc5)s4)c(F)cc3n2C2CC2)cc1	-25%	-2.76%	64.1%

Continued, compound first:

SMILES	remaining at 2 h, 10 µM [1]	IC50 (DU-145 [3])	IC50 [4]	IC50 (MDA-MB-231 [5])	solubility at 10 min [7]	microsomal CLint [8]	half-life [9]	inhibition at 10 µM (DU-145 [2])	inhibition at 10 µM (MDA-MB-231 [6])	inhibition (HEK-Blue IL-6)
COc1cc(-c2nnc(Nc3cc4nc(-c5ccc(F)cc5)n(C5CC5)c4cc3N3CCN(C)CC3)s2)cc(OC)c1OC	32.5%	1.05 µM	4.51 µM	0.82 µM	5.95 µg/mL (≈ 9.66 µM)			87.3%	92.5%	95.7%
CCCn1c(-c2ccc(F)cc2)nc2cc(Nc3nnc(-c4cc(OC)c(OC)c(OC)c4)s3)c(N3CCN(C)CC3)cc21	25%	4.42 µM	2.38 µM	0.8 µM				80.7%	94.5%	108%
O=c1ccc2ccc(O)cc2o1 [UMBELLIFERONE]						902 µL/min/mg	1.54 min			
CC(C)n1c(-c2ccc(F)cc2)nc2cc(Nc3nnc(-c4ccccc4)s3)c(N3CCN(C)CC3)cc21		> 10 µM	3.12 µM	> 10 µM				-4.96%	0.1%	71.4%
CN1CCN(c2cc3c(cc2Nc2nnc(-c4ccccc4)s2)nc(-c2ccccc2)n3C2CC2)CC1		9.17 µM	1.99 µM	5.92 µM				47%	83.3%	78.1%
O=[N+]([O-])c1ccc2c(c1)S(=O)(=O)C=C2		1.84 µM	2.21 µM	1.66 µM				79.6%	92.2%	107%
